Key:
[1] = biological target: T1, androgen receptor preparations of sebaceous glands (Mesocricetus auratus, UniProt A0A1U7QL32); test: Competitive binding analysis (displacement of tritium-marked R 1881); set-up: species or system Syrian hamster; conditions: for in vitro affinity at 50% blocking (rank order): displacement of 8 nM tritium-marked R 1881, FIG. 1; for affinity (RBA) for the androgen receptors, in words: displacement of tritium-marked R 1881
T1 construct: [3H]R1881 displacement with excess triamcinolone acetate
T1 sequence (A0A1U7QL32 1-900): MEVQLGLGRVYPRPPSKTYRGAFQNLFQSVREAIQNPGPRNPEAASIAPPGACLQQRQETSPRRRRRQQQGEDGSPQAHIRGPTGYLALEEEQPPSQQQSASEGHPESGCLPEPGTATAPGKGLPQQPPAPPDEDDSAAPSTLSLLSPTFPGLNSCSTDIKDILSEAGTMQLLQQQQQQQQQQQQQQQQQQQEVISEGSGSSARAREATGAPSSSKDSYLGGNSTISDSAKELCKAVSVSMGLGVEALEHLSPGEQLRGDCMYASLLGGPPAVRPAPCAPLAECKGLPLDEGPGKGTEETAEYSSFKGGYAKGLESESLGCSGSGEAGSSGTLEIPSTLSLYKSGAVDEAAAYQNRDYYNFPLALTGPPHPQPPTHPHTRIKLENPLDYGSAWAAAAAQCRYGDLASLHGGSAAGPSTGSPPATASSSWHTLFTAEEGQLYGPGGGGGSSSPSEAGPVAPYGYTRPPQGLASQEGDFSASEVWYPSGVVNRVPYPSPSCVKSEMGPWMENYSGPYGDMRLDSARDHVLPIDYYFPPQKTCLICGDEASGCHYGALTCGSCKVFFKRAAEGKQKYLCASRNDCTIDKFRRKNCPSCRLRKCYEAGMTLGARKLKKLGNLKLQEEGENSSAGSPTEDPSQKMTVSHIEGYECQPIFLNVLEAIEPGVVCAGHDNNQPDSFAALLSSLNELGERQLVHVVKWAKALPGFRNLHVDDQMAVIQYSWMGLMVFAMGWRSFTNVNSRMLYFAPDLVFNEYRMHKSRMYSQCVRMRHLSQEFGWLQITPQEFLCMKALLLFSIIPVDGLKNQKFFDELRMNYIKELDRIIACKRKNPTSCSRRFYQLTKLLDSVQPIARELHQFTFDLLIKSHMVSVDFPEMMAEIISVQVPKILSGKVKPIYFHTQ
Description: The standardisation basis in competitive binding analysis is the concentration of the competitor which, can displace 50% of a radioactively labeled reference substance from the receptor. This is conditioned upon the assumption that a relative binding efficiency (RPA) is proof of a high […] in the test material.
The comparison of the in vivo sebum suppression with RBA to the androgen receptor in vitro, should give the key to the answer of whether the substance itself or metabolites thereof, are responsible for the activity.
For the competitive study the web material of five ear shells was gathered. After homogenization in buffer A (10 mM-Tris-HCl-pH 7.4; 1.5 mM EDTA; 5 mM monothiogylcerine) cytosol was obtained as a supernate after ultracentrification at 120×10^3 g for thirty minutes at 4° C. The protein content was adjusted to between 1 to 5 mg/ml with a buffer A.
After a reaction time of 12 hours at 4° C. to achieve equilibrium, the unbound steroid hormones were removed from the reaction mixture by means of dextrancoated activated charcoal suspension (0.5% activated charcoal and 0.05% detran in […] Tris-HCl-buffer; pH 7.4). An aliquot of the supernate after centrifugation was measured in a fluid scintillation counter.

gestogen receptors = biological target: T2, gestogen receptors (Ovis aries, UniProt A0ACI6RU96); test: Binding to gestogen receptors in a sheep uterus (FIG. 2)
T2 sequence (A0ACI6RU96 1-911): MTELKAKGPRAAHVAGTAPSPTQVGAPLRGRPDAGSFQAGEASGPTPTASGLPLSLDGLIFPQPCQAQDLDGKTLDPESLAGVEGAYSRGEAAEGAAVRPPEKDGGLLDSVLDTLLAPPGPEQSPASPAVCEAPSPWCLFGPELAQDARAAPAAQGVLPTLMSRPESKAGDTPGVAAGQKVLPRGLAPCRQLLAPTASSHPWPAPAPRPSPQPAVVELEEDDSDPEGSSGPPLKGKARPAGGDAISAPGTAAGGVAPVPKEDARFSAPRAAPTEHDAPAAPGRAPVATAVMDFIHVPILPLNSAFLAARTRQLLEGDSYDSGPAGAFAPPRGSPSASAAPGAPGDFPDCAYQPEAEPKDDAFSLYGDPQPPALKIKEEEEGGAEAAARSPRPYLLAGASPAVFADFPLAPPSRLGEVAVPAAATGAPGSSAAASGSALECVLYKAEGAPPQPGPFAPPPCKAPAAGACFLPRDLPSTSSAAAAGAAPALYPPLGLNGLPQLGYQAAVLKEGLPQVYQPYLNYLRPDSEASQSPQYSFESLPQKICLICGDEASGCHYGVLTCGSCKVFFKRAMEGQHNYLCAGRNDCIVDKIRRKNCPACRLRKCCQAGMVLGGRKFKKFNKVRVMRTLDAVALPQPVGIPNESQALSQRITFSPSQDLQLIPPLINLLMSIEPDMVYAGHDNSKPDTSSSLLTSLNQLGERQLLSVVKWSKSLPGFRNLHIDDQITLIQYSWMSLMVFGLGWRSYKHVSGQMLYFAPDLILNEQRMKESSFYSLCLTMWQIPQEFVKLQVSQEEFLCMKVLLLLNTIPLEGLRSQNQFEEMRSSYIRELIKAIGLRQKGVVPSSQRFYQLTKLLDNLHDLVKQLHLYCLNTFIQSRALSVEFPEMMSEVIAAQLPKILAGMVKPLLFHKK
Description: These experiments relating to the competitive binding of different hormanal substances can only describe certain aspects of the binding kinetics, but not all aspects of the pharmacokinetics. It is thus necessary to test the biological effects of steroid hormones by in vivo methods.

androgenetic alopezia = test: Hair growth material on bald spots in androgenetic alopezia (Example VI); assay type: in vivo; conditions: for hair growth on previously bald spot: 2% solution in 50% ethanol and 50% Tween 20, rubbed twice daily, 1 mg per cm^2, four weeks; for undesirable side effects: topical, twice daily, 2% solution
Experimental: A 2% solution of nor-ethisterone in 50% ethanol and 50% Tween 20, was utilized for the assistance in hair growth by androgenetic alopezia. The bald spots were rubbed twice daily with a sufficient amount of hair growth material to provide a concentration of 1 mg per cm^2 nor-ethisterone through the skin barrier to the receptor site.

[2] = tested on: skin upper surface lipids; test: Human studies: skin surface lipid content after topical ethisterone lotion; assay type: in vivo
Experimental: A 2% ethisterone formulation was prepared in accordance with Example I. Five male and five female human test subjects took part in the experiment who were treated on their left foreheads with the ethisterone lotion. The subjects applied the lotion twice a day at a concentration of approximately 0.1 mg per cm^2 of ethisterone applied to the receptors.
The lipid content of the upper skin surface of both left and right forehead portions were measured prior to the onset of therepy (0 control), in the second and the fourth weeks of therapy.
Initially the replacement sum was determined. The skin was first cleaned with cigarette paper dipped in acetone and stroked six to eight times over the test area. After sixty minutes the skin lipids were removed from the skin portion of the following manner. Cigarette paper was placed by means of tweezers on the segment to be measured and on the cigarette paper was placed a mass of 280 grams having a surface area of 5 cm^2. Thereafter, the paper was eluted with a mixture comprising 70 parts of acetone and 30 parts of methanol. The thus produced eluate was evaporated to dryness and treated with phosphovanillic acid, thereafter the eluate was evaluated by gas chromatography. Previously, the gas chromatograph had been calibrated with 25 standard skin lipids (mono-di-, triglyceride, cholesterol as well as cholesterol esters, oleic acid esters, having 10 to 18 carbon atoms as well as waxes having up to 28 carbon atoms).
The eluate was also subjected, to thin layer chromomatography. It is noted that generally, speaking the standard substances may be regarded as representative of skin upper surface lipids.

[3] = ethisterone in oil-in-water emulsion applied to the skin (summary statement)

SMILES	in vitro affinity at 50% blocking (rank order) [1]	affinity (RBA) for the androgen receptors, in words [1]	binding affinity to gestogen receptors (comparison) (gestogen receptors)	hair growth on previously bald spot (androgenetic alopezia)	undesirable side effects (androgenetic alopezia)	lipid content on treated skin upper surface area less than untreated area ([2]; 2% ethisterone lotion twice a day on left forehead, approx. 0.1 mg per cm^2, four week treatment) [%]	wax content reduced ([2]; 2% ethisterone lotion twice a day on left forehead, four week treatment) [%]	reduction of lipids which comprise waxy substances (C20 to C28) [2, 3] [% by weight]	reduction of total lipid content of the skin from the initial value [2, 3]
C[C@@H]1C[C@H]2[C@@H]3CCC4=CC(=O)C=C[C@]4(C)[C@@]3(F)[C@@H](O)C[C@]2(C)[C@@]1(O)C(=O)CO [dexamethasone]	R 1881, 17-alpha-PM, ethisterone, CPA, SL and dexamethasone	may be disregarded	–	–	–	–	–	–	–
C#C[C@]1(O)CC[C@H]2[C@@H]3CCC4=CC(=O)CC[C@@H]4[C@H]3CC[C@@]21C [nor-ethisterone, 17-hyroxy-19-norpregn-4-en-20-yn-3-one]	–	–	higher binding affinity than progesterone and ethisterone	a hair fuzz is noted on the previously bald spot	no undesirable side effects were noted	–	–	–	–
C#C[C@]1(O)CC[C@H]2[C@@H]3CCC4=CC(=O)CC[C@]4(C)[C@H]3CC[C@@]21C [ethisterone, 17-alpha-hydroxypregen-4-en-20-yn-3-one]	R 1881, 17-alpha-PM, ethisterone, CPA, SL and dexamethasone	satisfactory middle place between 17-alpha-PM and synthetic R 1881	nor-ethisterone has a higher binding affinity than progesterone and ethisterone	–	–	25	75	75	about 25%
CCCC1(O)CCC2C3CCC4CC(=O)CC(C)C4(C)C3CCC21C (stereo not drawn) [17-alpha-PM, 17-alpha-propyl-mesterolone]	R 1881, 17-alpha-PM, ethisterone, CPA, SL and dexamethasone	substantially higher affinity	–	practically the same result is obtained	no undesirable side effects were noted	–	–	–	–
CC(=O)[C@H]1CC[C@H]2[C@@H]3CCC4=CC(=O)CC[C@]4(C)[C@H]3CC[C@]12C [progesterone]	–	–	nor-ethisterone has a higher binding affinity than progesterone and ethisterone	–	–	–	–	–	–
